What was measured:
S. aureus 209P NIHJ JC1 = assay: Antibacterial activities in vitro (agar plate dilution method); type: cell-based; conditions: Staphylococcus aureus; Mueller Hinton agar, inoculum size 10⁶ CFU/mℓ, 37°C for 16 hours
Procedure: (1) Antibacterial activities in vitro The antibacterial activities were measured by the following agar plate dilution method. One platinum loopful of each test microorganism incubated overnight in Mueller Hinton broth, was inoculated to Mueller Hinton agar (inoculum size: 10⁶ CFU/mℓ). Such a culture medium contained a test compound in a predetermined concentration.

S. aureus 4970 = assay: Protective effects against experimental infectious disease of mice; type: in vivo, Male mice (ddY); conditions: Staphylococcus aureus, 4970, 96 h; oral administration one hour after inoculation of 5 x 10⁵ cells in 5% mucin; mortality four days later; eight mice per group; read-out: ED₅₀
Procedure: (2) Protective effects against experimental infectious disease of mice
Male mice (ddY) of 4 weeks old having body weights of 20±1 g were employed, and the test was conducted with eight mice per group. Microorganism used: S. aureus 4970
5 x 10⁵ cells of the pathogenic microorganism suspended in 5% mucin were […] injected to each mouse. One hour after the inoculation of the microorganism, the compound of the present invention was orally administered in the form of solutions having various concentrations. Four days later, the mortality of the mice was determined, and the ED₅₀ value was calculated.

[1] = Concentration in blood and recovery rate in urine after oral administration (bioassay); type: in vivo, ddY male mice; conditions: mouse, 40 mg/kg orally, mice, bioassay with S. lutea PC 11001, Example 26 quantified as its non-ester form (Example 25); for concentration at 0.25 h: read-out: Concentration in blood 0.25 hr later; for concentration at 0.5 h: read-out: Concentration in blood 0.5 hr later
Procedure: (3) Concentration in blood and recovery rate in urine
ddY male mice of 4 weeks old
40 mg/kg of the test compound was orally administered to each mouse, and the change with time of the concentration in blood and the recovery rate in urine for from 0 to 6 hours were measured. The quantitative analysis was conducted by a bioassay using S. lutea PC 11001 as the test microorganism. With respect to the compound of Example 26, the quantitative analysis was conducted in the form of its non-ester form i.e. as the compound of Example 25.

SMILES	MIC (S. aureus 209P NIHJ JC1)	ED50 (S. aureus 4970)	concentration at 0.25 h ([1]; blood)	concentration at 0.5 h ([1]; blood)	concentration at 1 h ([1]; blood, read-out: Concentration in blood 1 hr later)	dose excreted at 6 h ([1]; urine, 0-6 hrs)
C=C(C)C1=C(C(=O)O)N2C(=O)[C@H]([C@@H](C)O)[C@H]2[C@H]1C [Example 25, Sodium (1S,5R,6S)-6-((1R)-1-hydroxyethyl)-2-(1-methylvinyl)-1-methylcarbapen-2-em-3-carboxylate]	0.05 µg/mL	0.34 mg/kg	4100 ng/mL	2900 ng/mL	1600 ng/mL	1.8%
C=C(C)C1=C(C(=O)OCOC(=O)C(C)(C)C)N2C(=O)[C@H]([C@@H](C)O)[C@H]2[C@H]1C [Example 26, Pivaloyloxymethyl (1S,5R,6S)-6-((1R)-1-hydroxyethyl)-2-(1-methylvinyl)-1-methylcarbapen-2-em-3-carboxylate]		0.36 mg/kg	44900 ng/mL	29100 ng/mL		

Source: patent publication EP0430037A2, “Process for producing 2-carbon-substituted carbapenem derivatives” (BANYU PHARMACEUTICAL CO., LTD., priority 1989, dated 1991)
